Assays:
[1] = tested on: 20-HETE formation (CYP4) in HLM; experiment: Inhibition of 20-HETE formation at 250 or 500 nM in HLM microsomal incubations; assay type: biochemical, human; details: 500 nM compound; HLM 300 μg/ml, AA 100 μM, 20 min
Method in brief: (§1)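 20-HETE formation, measured by UPLC-MS/MS after ether extraction, is reported as percentage of vehicle control, triplicates. Incubations: 300 μg/ml microsomal protein or 25 pmol/mL rCYP4F2, AA 100 μM, NADPH 1 mM, 20 min at 37° C.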

[2] = target: T1, rCYP4F2 (Homo sapiens, UniProt P78329); experiment: Inhibition of 20-HETE formation at 250 or 500 nM in rCYP4F2 incubations; assay type: biochemical; details: 500 nM compound; rCYP4F2 25 pmol/mL; read-out: rCYP4F2 % inh. @ 500 nM
T1 sequence (P78329 5-520): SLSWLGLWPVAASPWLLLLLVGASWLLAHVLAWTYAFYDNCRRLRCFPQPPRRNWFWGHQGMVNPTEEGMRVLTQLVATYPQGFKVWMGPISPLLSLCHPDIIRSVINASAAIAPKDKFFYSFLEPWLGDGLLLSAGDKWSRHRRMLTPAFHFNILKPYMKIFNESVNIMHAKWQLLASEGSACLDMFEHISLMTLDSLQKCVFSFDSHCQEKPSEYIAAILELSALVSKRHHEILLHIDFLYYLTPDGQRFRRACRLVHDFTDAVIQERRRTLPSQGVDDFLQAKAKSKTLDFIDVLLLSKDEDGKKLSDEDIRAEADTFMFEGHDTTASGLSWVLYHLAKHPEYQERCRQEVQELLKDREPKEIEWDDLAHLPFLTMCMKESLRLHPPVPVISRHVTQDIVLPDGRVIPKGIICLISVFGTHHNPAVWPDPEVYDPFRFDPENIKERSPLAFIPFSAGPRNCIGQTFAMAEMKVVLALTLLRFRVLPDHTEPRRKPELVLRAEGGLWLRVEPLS
Method in brief: as §1

[3] = tested on: 20-HETE formation (CYP4) in RKM; experiment: Inhibition of 20-HETE formation at 250 or 500 nM in RKM microsomal incubations; assay type: biochemical, rat; details: 500 nM compound; RKM 300 μg/ml
Procedure: To screen the inhibitory effects against 20-HETE formation, compounds were screened in HLM, RLM, RKM and rCYP4F2 microsomal incubations. Compounds dissolved in either 100% methanol or 100% DMSO to yield 10 mM stock solution. Microsomal incubations containing HLM, RLM, RKM (300 μg/ml) or rCYP4F2 (25 pmol/mL), AA (100 μM), NADPH (1 mM) treated with test compounds at various concentrations (500 nM or 250 nM) in a 1 ml total volume in incubation buffer (0.12 M potassium phosphate buffer containing 5 mM magnesium chloride). Reaction was started by adding NADPH to the incubates and was carried out at 37° C. in a shaking water bath for 20 min. Reaction was stopped by placing tubes on ice, followed by adding 125 μl 20-HETE-d6 as internal standard to each sample. Microsomal incubations were extracted with 3 ml ethyl ether twice, dried down under nitrogen gas and reconstituted in 125 μl 80:20 methanol:deionized H2O for analysis. 20-HETE formation was quantified using a validated UPLC-MS/MS assay and normalized by vehicle group. Each compound had three replications (n=3). Vehicle group was used as control to calculate percentage of 20-HETE formation rate. HET0016 (250 nM) was used as positive control. Incubates without NADPH group served as the negative control. An Acquity ultra performance LC autosampler (Waters, Milford, MA) was used to isolate 20-HETE on an UPLC BEH C18, 1.7 μm (2.1×100 mm) reversed-phase column (Waters, Milford, MA) protected by a guard column (2.1×5 mm; Waters, Milford, MA) of the same packing material. Column temperature was maintained at 55° C. Mobile phases consisted of 0.005% acetic acid, 5% acetonitrile in deionized water (A) and 0.005% acetic acid in acetonitrile (B). The flow rate for mobile phases is 0.5 ml/min. The initial mixture of mobile phase was 65:35 of A and B. Mobile phase B increased at 0.4 minutes after injection from 35% to 70% in a linear gradient over 4 minutes, and again increased to 95% over 0.5 minutes where it remained for 0.3 minutes. This was followed by a linear return to initial conditions over 0.1 minutes with a 1.5 minute pre-equilibration period prior to the next sample run. Total run time was 6.4 minutes for each injection. Injection volumes were 7.5 μl. Mass spectrometric analysis was carried out using a TSQ Quantum Ultra (Thermo Fisher Scientific, San Jose, CA) triple quadrupole mass spectrometer using heated electrospray ionization (HESI). Mass spectrometer was operated in negative selective reaction monitoring (SRM) mode with unit resolutions at both Q1 and Q3 set at 0.70 Da full width at half maximum. Scan time was set at 0.01 s and collision gas pressure was 1.3 mTorr. Quantitation of 20-HETE by SRM was performed by monitoring the m/z. Analytical data was acquired and analyzed using Xcaliber 3.0 data system (ThermoFinnigan, San Jose, CA).

[4] = tested on: 20-HETE formation (CYP4) in RLM; experiment: Inhibition of 20-HETE formation at 250 or 500 nM in RLM microsomal incubations; assay type: biochemical, rat; details: 500 nM compound; RLM 300 μg/ml
Method in brief: as §1

Compound | HLM % inh. @ 500 nM [1] [%] | inhibition at 0.5 µM [2] [%] | RKM % inh. @ 500 nM [3] [%] | RLM % inh. @ 500 nM [4] [%]
c1ccc(N2CCN(c3cn[nH]c3)CC2)cc1 [Compound 5, 1-Phenyl-4-(1H-pyrazol-4-yl)piperazine] | 24.50 | 2.6 | 0.00 | 0.00
COc1ccc(N2CCN(c3cn[nH]c3)CC2)cc1 [Compound 6, 1-(4-Methoxyphenyl)-4-(1H-pyrazol-4-yl)piperazine] | 31.80 | 6.1 | 1.20 | 0.00
c1cnc(C2CCN(c3ccn[nH]3)CC2)nc1 [Compound 9, 2-(1-(1H-Pyrazol-5-yl)piperidin-4-yl)pyrimidine] | 0.00 | 0 | 0.00 | 0.00
c1cnc(C2CCN(c3cn[nH]c3)CC2)nc1 [Compound 10, 2-(1-(1H-Pyrazol-4-yl)piperidin-4-yl)pyrimidine] | 0.00 | 0 | 0.00 | 0.00
COC(=O)c1ccc(C2CCN(c3ccn[nH]3)CC2)cc1 [Compound 11, Methyl 4-(1-(1H-pyrazol-5-yl)piperidin-4-yl)benzoate] | 0.00 | 66.5 | 1.60 | 3.60
COC(=O)c1ccc(C2CCN(c3cn[nH]c3)CC2)cc1 [Compound 12, Methyl 4-(1-(1H-pyrazol-4-yl)piperidin-4-yl)benzoate] | 0.00 | 63.7 | 6.40 | 18.30
CC(=O)N(C)c1ccc(C2CCN(c3cn[nH]c3)CC2)cn1 [Compound 13, N-(5-(1-(1H-Pyrazol-4-yl)piperidin-4-yl)pyridin-2-yl)-N-methylacetamide] | 29.00 | 1 | 27.00 | 3.00
COc1cc(C2CCN(c3cn[nH]c3)CC2)ccn1 [Compound 15, 4-(1-(1H-Pyrazol-4-yl)piperidin-4-yl)-2-methoxypyridine] | 39.00 | 54 | 27.00 | 16.00
COc1cc(C2CCN(c3ccn[nH]3)CC2)ccn1 [Compound 16, 4-(1-(1H-Pyrazol-5-yl)piperidin-4-yl)-2-methoxypyridine] | 27.00 | 28 | 0.00 | 29.00
Fc1ccc(C2CCN(c3cn[nH]c3)CC2)cc1 [Compound 17, 4-(4-Fluorophenyl)-1-(1H-pyrazol-4-yl)piperidine] | 80.00 | 83 | 25.00 | 57.00
Fc1ccc(C2CCN(c3ccn[nH]3)CC2)cc1 [Compound 18, 4-(4-Fluorophenyl)-1-(1H-pyrazol-5-yl)piperidine] | 66.00 | 70 | 0.00 | 41.00
Cc1ccccc1C1CCN(c2ccn[nH]2)CC1 [Compound 35, 1-(1H-Pyrazol-5-yl)-4-(o-tolyl)piperidine] | 20.00 | 20 | 4.00 | 0.00
O=S(=O)(c1ccccc1)C1CCN(c2cn[nH]c2)CC1 [Compound 42, 4-(Phenylsulfonyl)-1-(1H-pyrazol-4-yl)piperidine] | 5.00 | 28 | 0.00 | 0.00
COc1ccc(C2CCN(c3ccn[nH]3)CC2)cc1F [Compound 43, 4-(3-Fluoro-4-methoxyphenyl)-1-(1H-pyrazol-5-yl)piperidine] | 82.00 | 79 | 31.00 | 17.00
COc1cccc(CC2CCN(c3cn[nH]c3)CC2)c1 [Compound 45, 4-(3-Methoxybenzyl)-1-(1H-pyrazol-4-yl)piperidine] | 71.00 | 73 | 0.00 | 24.00
COc1ccc(C2CCN(c3ccn[nH]3)CC2)c(F)c1 [Compound 46, 4-(2-Fluoro-4-methoxyphenyl)-1-(1H-pyrazol-5-yl)piperidine] | 78.00 | 88 | 0.00 | 47.00
Fc1cccc(C2CCN(c3ccn[nH]3)CC2)c1 [Compound 48, 4-(3-Fluorophenyl)-1-(1H-pyrazol-5-yl)piperidine] | 67.00 | 63 | 8.00 | 0.00
Fc1cccc(C2CCN(c3cn[nH]c3)CC2)c1 [Compound 49, 4-(3-Fluorophenyl)-1-(1H-pyrazol-4-yl)piperidine] | 80.00 | 90 | 28.00 | 31.00
Fc1ccccc1C1CCN(c2ccn[nH]2)CC1 [Compound 50, 4-(2-Fluorophenyl)-1-(1H-pyrazol-5-yl)piperidine] | 47.00 | 69 | 18.00 | 16.00
Fc1ccccc1C1CCN(c2cn[nH]c2)CC1 [Compound 51, 4-(2-Fluorophenyl)-1-(1H-pyrazol-4-yl)piperidine] | 77.00 | 94 | 26.00 | 53.00

Source: US12479816B2, “20-HETE formation inhibitors” (UNIVERSITY OF PITTSBURGH—OF THE COMMONWEALTH SYSTEM OF …, priority 2019, dated 2025)
